Measured values as given in patent publication US11932653B2, “Lycorine derivative, and pharmaceutical composition and use thereof” (priority 2018, dated 2024).

Experiments:
EV71 = experiment: In-vitro experiment against EV71 virus (RD cells, MTT); format: cell-based; settings: for EC50: Enterovirus A, RD cells infected with 100x TCID50 EV71, compound added after 2 hrs, MTT at 48 hrs; for SI: selectivity index, EV71, RD cells
Experimental: (§1) RD cells were seeded into a 96-well plate (10^4 cells/well), and infected with 100× TCID50 of EV71 viruses. After 2 hrs, various concentrations of the derivative were added. […] Uninfected cells were also given various concentrations of the derivative to determine the CC50.

[1] = Cytotoxicity in uninfected RD cells (CC50, MTT); format: cell-based; settings: human, Table 1
Experimental: as §1
(§2) RD cells were seeded into a 96-well plate (10^4 cells/well), and infected with 100×TCID50 of CAV16 viruses. After 2 hrs, various concentrations of the derivative were added. […] Uninfected cells were also given various concentrations of the derivative to determine the CC50.

[2] = Toxicity test in ICR mice after single administration by intraperitoneal injection; format: in vivo
Experimental: 22 10-day-old ICR mice were randomly assigned to 17 groups, and given Compound 6 once by intraperitoneal injection at a dosage of 0.625, 1.25, 2.5, 5, 10, 20, 40, 80, 100, 160, 200, 250, 300, 470, 500, 1000, or 2000 mg/kg. 1-2 animals were included in each group, and the male and female mice were administered alternately. […] The dead animals are necropsied and the changes in main organs were observed. On day 1 after administration, the weight of the animals in the 160 mg/kg group is decreases by 0.3 g, and the weight of the animals in the 0.625, 1.25, 2.5, 5, 10, 20, 40, 80, 100 mg/kg group is increased, compared to the day of administration. Under the conditions in this experiment, ICR mice were given Compound 6 once by intraperitoneal injection. The minimum lethal dose was 200 mg/kg and the maximum tolerated dose was 160 mg/kg.
24 10-day-old ICR mice were randomly assigned to 19 groups, and given Compound 6 once by intraperitoneal injection at a dosage of 0.625, 1.25, 2.5, 5, 10, 20, 40, 60, 80, 100, 120, 136, 160, 270, 320, 500, 690, 1000, or 2000 mg/kg. 1-2 animals were included in each group, and the male and female mice were administered alternately. […] The dead animals are necropsied and the changes in main organs were observed. […] Under the conditions in this experiment, ICR mice were given Compound 20 once by intraperitoneal injection.

CAV16 = experiment: In-vitro experiment against Coxsackievirus A16 (CAV16) (RD cells, MTT); format: cell-based, Coxsackievirus Virus A16 (CAV16)
Experimental: as §2

[3] = system: Salmonella typhimurium TA100; experiment: Test of reverse mutation in histidine-deficient Salmonella typhimurium, strain TA100; format: cell-based; settings: 1.5 μg/dish, positive control
Experimental: The mutagenic effect of Compound 6 on the strains TA100 and TA102 was detected by determining the reverse mutation in histidine-deficient Salmonella typhimurium by pre-loaded culture dish method. The dosage of Compound 6 is 8, 40, 200, 1000, or 5000 μg/dish under activated and non-activated conditions, and the mutagenic effects on TA100 and TA102 were tested.

Row | SMILES | EC50 (EV71) [µM] | SI (EV71) | CC50 at 48 h [1] [µM] | further results
1 | Cc1ccc(OCC(=O)OC2C(O)C=C3CCN4Cc5cc6c(cc5C2C34)OCO6)c(C)c1 (centres unmarked) [Compound 13, 1-(2,4-dimethyl-phenoxyacetyl)-lycorine] | 1.56 | 95.33 | 149 | –
2 | O=C(COc1ccccc1Cl)OC1C(O)C=C2CCN3Cc4cc5c(cc4C1C23)OCO5 (centres unmarked) [Compound 14, 1-(2-chloro-phenoxyacetyl)-lycorine] | 1.63 | 89.10 | 145 | –
3 | O=C(COc1cccc(Cl)c1)OC1C(O)C=C2CCN3Cc4cc5c(cc4C1C23)OCO5 (centres unmarked) [Compound 15, 1-(3-chloro-phenoxyacetyl)-lycorine] | 1.73 | 87.61 | 152 | –
4 | O=C(COc1ccc(Cl)cc1Cl)OC1C(O)C=C2CCN3Cc4cc5c(cc4C1C23)OCO5 (centres unmarked) [Compound 16, 1-(2,4-dichloro-phenoxyacetyl)-lycorine] | 1.71 | 75.94 | 130 | –
5 | O=C(COc1ccccc1[N+](=O)[O-])OC1C(O)C=C2CCN3Cc4cc5c(cc4C1C23)OCO5 (centres unmarked) [Compound 17] | 1.71 | 91.37 | 156 | –
6 | COc1ccc(OCC(=O)OC2C(O)C=C3CCN4Cc5cc6c(cc5C2C34)OCO6)cc1 (centres unmarked) [Compound 18, 1-(4-methoxy-phenoxyacetyl)-lycorine] | 1.65 | 97.65 | 161 | –
7 | O=C(COc1ccc2ccccc2c1)OC1C(O)C=C2CCN3Cc4cc5c(cc4C1C23)OCO5 (centres unmarked) [Compound 19, 1-(2-naphthyl-phenoxyacetyl)-lycorine] | 1.97 | 82.94 | 163 | –
8 | O=C(CSc1ccc(F)cc1)OC1C(O)C=C2CCN3Cc4cc5c(cc4C1C23)OCO5 (centres unmarked) [Compound 20, 1-(4-fluoro-phenylthioacetyl)-lycorine] | – | – | – | minimum lethal dose ([2]; 10-day-old ICR mice, single intraperitoneal injection, observed 14 days): 160 mg/kg; MTD at 14 days ([2]; both sexes, ICR, mouse, in vivo, ip): 136 mg/kg; Weight on day 1 after administration ([2]; mouse, in vivo, ip, 0.625 mg/kg): 5.2; Weight on day 1 after administration ([2]; mouse, in vivo, ip, 1.25 mg/kg): 6.6; Weight on day 1 after administration ([2]; mouse, in vivo, ip, 5 mg/kg): 6.4; Weight on day 1 after administration ([2]; mouse, in vivo, ip, 10 mg/kg): 6.5; Weight on day 1 after administration ([2]; mouse, in vivo, ip, 20 mg/kg): 5.9; Weight on day 1 after administration ([2]; mouse, in vivo, ip, 40 mg/kg): 6.8; Weight on day 1 after administration ([2]; mouse, in vivo, ip, 60 mg/kg): 7; Weight on day 1 after administration ([2]; mouse, in vivo, ip, 100 mg/kg): 6.8; Weight on day 1 after administration ([2]; mouse, in vivo, ip, 136 mg/kg): 6.7
9 | O=C(CCc1ccccc1)OC1C(O)C=C2CCN3Cc4cc5c(cc4C1C23)OCO5 (centres unmarked) [Compound 23, 1-(3-phenylpropionyl)-lycorine] | 1.73 | 74.28 | 129 | –
10 | O[C@H]1[C@H]2c3cc4c(cc3CN3CCC(=C[C@@H]1O)[C@H]23)OCO4 [Lycorine] | 2.26 | 46.24 | 105 | EC50 (CAV16; Coxsackievirus, RD cells infected with 100x TCID50 CAV16, compound added after 2 hrs, MTT at 48 hrs): 1.57 µM; SI (CAV16; selectivity index, CAV16, RD cells): 66.57
11 | [N-]=[N+]=[N-].[Na+] [NaN3, reference compound] | – | – | – | Number of colonies TA100(−S9) [3]: >1000
